Test results: patent US5541116A, “Method for the stabilization of endogenous, physiologically active peptides” (B.R.A.H.M.S. Diagnostica GmbH, priority 1991, dated 1996)
Read-outs that look alike come from different tables or passages of the source. Where a SMILES comes first, the peptide text is derived from it. [ ]: non-standard residue; d: D form. The star is where a group is joined. Sta = CC(C)C[C@H](N)[C@@H](O)CC(=O)O; Isovaleryl = CC(C)CC(=O)*

Legend:
[1] = test system: endogenous proteases which are active in human serum and plasma; test: Hydrolysis of 125I-ACTH 1-39 in human serum or EDTA plasma with protease inhibitors (RP-HPLC, radioactivity detection); assay type: biochemical
[2] = test system: endogenous proteases which are active in human serum and plasma; test: Variation of inhibitor concentrations to find the minimum needed for adequate protection of the peptides; assay type: biochemical; details: in the presence of the other inhibitors; serum or plasma sample
Source text: To determine the concentrations of the individual inhibitors which are required for adequate protection of the peptides, in the presence of the other inhibitors, the concentrations were repeatedly varied.

[3] = 125I-ACTH 1-39, inhibitor 100 μM, EDTA plasma, 22° C., 25 h
[4] = 125I-ACTH 1-39, inhibitor 100 μM, serum, 22° C., 18 h
[5] = 125I-ACTH 1-39, inhibitor 1 mM, EDTA plasma, 22° C., 25 h
[6] = 125I-ACTH 1-39, inhibitor 1 mM, serum, 22° C., 18 h

Molecule: CC(C)C[C@@H](N)[C@H](O)C(=O)N[C@H](C(=O)N[C@H](C(=O)N[C@@H](CC(=O)O)C(=O)O)C(C)C)C(C)C [Amastatin]
- % of hydrolysis rate of the control, in EDTA plasma [1, 3]: 3%
- % of hydrolysis rate of the control, in serum [1, 4]: 17%

Molecule: N=C(N)c1ccccc1 [Benzamidine]
- % of hydrolysis rate of the control, in EDTA plasma [1, 5]: 80%
- % of hydrolysis rate of the control, in serum [1, 6]: 84%

Molecule: CC(C)C[C@H](NC(=O)[C@@H](O)[C@H](N)Cc1ccccc1)C(=O)O [Bestatin]
- % of hydrolysis rate of the control, in EDTA plasma [1, 5]: 27%
- % of hydrolysis rate of the control, in serum [1, 6]: 44%

Molecule: CC(C)C[C@H](NC(=O)N[C@H](C(=O)N[C@@H](CCC(N)=O)C(=O)N[C@@H](C)C=O)[C@@H]1CCNC(=N)N1)C(=O)O [Elastatinal]
- % of hydrolysis rate of the control, in EDTA plasma [1, 3]: 100%
- % of hydrolysis rate of the control, in serum [1, 4]: 97%

Molecule: CC(=O)N[C@@H](CC(C)C)C(=O)N[C@@H](CC(C)C)C(=O)N[C@H](C=O)CCCNC(=N)N [Leupeptin]
- % of hydrolysis rate of the control, in EDTA plasma [1]: 27
- % of hydrolysis rate of the control, in serum [1]: 41
- minimum concentration present in the sample for effective protection [2]: 50 µM

Molecule: CCN1C(=O)C=CC1=O [N-Ethylmaleimide]
- % of hydrolysis rate of the control, in EDTA plasma ([1]; 125I-ACTH 1-39, inhibitor 2 mM, EDTA plasma, 22° C., 25 h): 54%
- % of hydrolysis rate of the control, in serum ([1]; 125I-ACTH 1-39, inhibitor 2 mM, serum, 22° C., 18 h): 48%

Molecule: CC(C)CC(=O)N[C@H](C(=O)N[C@H](C(=O)N[C@@H](CC(C)C)[C@@H](O)CC(=O)N[C@@H](C)C(=O)N[C@@H](CC(C)C)[C@@H](O)CC(=O)O)C(C)C)C(C)C [Pepstatin] (Isovaleryl-VV[Sta]A[Sta]-OH)
- % of hydrolysis rate of the control, in EDTA plasma [1, 3]: 79%
- % of hydrolysis rate of the control, in serum [1, 4]: 105%

Molecule: O=S(=O)(F)Cc1ccccc1 [Phenylmethylsulphonyl fluoride]
- % of hydrolysis rate of the control, in EDTA plasma [1]: 100
- % of hydrolysis rate of the control, in serum [1]: 97

Molecule: CC(C)C[C@H](NP(=O)(O)O[C@@H]1O[C@@H](C)[C@H](O)[C@@H](O)[C@H]1O)C(=O)N[C@@H](Cc1c[nH]c2ccccc12)C(=O)O [Phosphoramidone]
- % of hydrolysis rate of the control, in EDTA plasma [1, 5]: 85%
- % of hydrolysis rate of the control, in serum [1, 6]: 98%

Molecule: O=S(=O)(O)c1cc[c]([Hg][Cl])cc1 [p-Choloromercuryphenylsulphonic acid, p-Choloromercury-phenylsulphonic acid]
- % of hydrolysis rate of the control, in EDTA plasma [1]: 62
- % of hydrolysis rate of the control, in serum [1]: 94

Molecule: Antithrombin III
- % of hydrolysis rate of the control, in EDTA plasma ([1]; 125I-ACTH 1-39, inhibitor 0.1 unit/ml, EDTA plasma, 22° C., 25 h): 79%
- % of hydrolysis rate of the control, in serum ([1]; 125I-ACTH 1-39, inhibitor 0.1 unit/ml, serum, 22° C., 18 h): 107%

Molecule: Heparin
- % of hydrolysis rate of the control, in EDTA plasma ([1]; 125I-ACTH 1-39, inhibitor 5 mg/ml, EDTA plasma, 22° C., 25 h): 103%
- % of hydrolysis rate of the control, in serum ([1]; 125I-ACTH 1-39, inhibitor 5 mg/ml, serum, 22° C., 18 h): 126%

B1: Trypsin inhibitor (soybean): soybean trypsin inhibitor (Sigma T-900) (protein, UniProt P01070 25-205, looked up)
Trypsin inhibitor A: DFVLDNEGNPLENGGTYYILSDITAFGGIRAAPTGNERCPLTVVQSRNELDKGIGTIISSPYRIRFIAEGHPLSLKFDSFAVIMLCVGIPTEWSVVEDLPEGPAVKIGENKDAMDGWFRLERVSDDEFNNYKLVFCPQQAEDDKCGDIGISIDHDDGTRRLVVSKNKPLVVQFQKLDKESL
- % of hydrolysis rate of the control, in EDTA plasma ([1]; 125I-ACTH 1-39, inhibitor 0.1 mg/ml, EDTA plasma, 22° C., 25 h): 71%
- % of hydrolysis rate of the control, in serum ([1]; 125I-ACTH 1-39, inhibitor 0.1 mg/ml, serum, 22° C., 18 h): 78%
